Experiments:
Test in all cases: OctR activation: change in intracellular calcium (CALCIUM 6QR dye, FlexStation 3) in stably transfected mammalian cells
[1] = tested on: AeOctR (Aedes octopamine receptor), cloned α-like OctR; format: cell-based, Aedes aegypti; conditions: agonist
Text: (§1) Functional expression of cloned arthropod OctRs and human α2-ARs: The cDNAs for α-like OctRs from different arthropod species (e.g., Anopheles gambiae, Aedes aegypti, Periplaneta americana, Drosophila melanogaster, Ixodes scapularis, Balanus improvises) and for α2-AR subtypes from humans were individually subcloned into mammalian expression vectors. These plasmids, which harbor a resistance gene for the selection drug G418 and the cDNA sequence for the receptor of interest, were individually transfected into mammalian cells using a calcium phosphate precipitation method. G418 selection was then employed to generated stable clonal cell lines. Utilizing rapid filtration radioligand binding techniques, the cell surface density of receptor expression of the individual clonal cell lines was determined at equilibrium and those with similar high levels of expression were selected for further experiments. Briefly, binding conditions were 50 mM Tris binding buffer pH 7.4 at 25° C. and an ice-cold wash buffer 10 mM Tris-HCl, pH 7.4). The radioligand was [3H]rauwolscine and non-specific binding was determined in the presence of 10 μM atipamezole. Following the addition of membranes prepared from the clonal cell lines, samples were mixed and allowed 2 hr. to reach equilibrium before rapid filtration and washing through 0.3% PEI-treated GF/C filters. The radioactivity remaining on the filters was quantified by scintillation counting. Receptor density (Bmax) was back calculated knowing the specific activity of the radioligand and applying the equation for a square hyperbola model: Bmax=(Y·(KD+X))/X, where Y is [specifically bound radioligand] and X=[radio ligand concentration]. The affinity (KD) for the radioligand for each receptor was determined in separate saturation isotherm binding experiments using the same binding conditions as describe above.
(§2) Measurement of OctR activation by measuring changes in intracellular calcium: Activation of arthropod α-like OctRs increases intracellular calcium via a Gq-coupling mechanism. This involves activation of phospholipase C leading to an increase in intracellular inositol triphosphate (IP3) which then activates IP3-gated calcium channels in the endoplasmic reticulum causing a transient rise in intracellular calcium. These changes in intracellular calcium upon OctR activation were measured by loading cells with intracellular calcium sensitive dye CALCIUM 6QR and reading the change in calcium-induced fluorescent signal over time on a FlexStation 3 microplate reader.

[2] = tested on: IsTOctR (Ixodes octopamine receptor), cloned α-like OctR; format: cell-based, Ixodes scapularis; conditions: agonist, read-out: IsTOctR (Ixodes octopamine receptor) EC50
Text: as §1, §2

[3] = molecular target: T1, DmOctR (Drosophila octopamine receptor), cloned α-like OctR (Drosophila melanogaster, UniProt Q7JQF1); format: cell-based; conditions: agonist
T1 construct: Gq calcium readout
T1 sequence (Q7JQF1 1-645): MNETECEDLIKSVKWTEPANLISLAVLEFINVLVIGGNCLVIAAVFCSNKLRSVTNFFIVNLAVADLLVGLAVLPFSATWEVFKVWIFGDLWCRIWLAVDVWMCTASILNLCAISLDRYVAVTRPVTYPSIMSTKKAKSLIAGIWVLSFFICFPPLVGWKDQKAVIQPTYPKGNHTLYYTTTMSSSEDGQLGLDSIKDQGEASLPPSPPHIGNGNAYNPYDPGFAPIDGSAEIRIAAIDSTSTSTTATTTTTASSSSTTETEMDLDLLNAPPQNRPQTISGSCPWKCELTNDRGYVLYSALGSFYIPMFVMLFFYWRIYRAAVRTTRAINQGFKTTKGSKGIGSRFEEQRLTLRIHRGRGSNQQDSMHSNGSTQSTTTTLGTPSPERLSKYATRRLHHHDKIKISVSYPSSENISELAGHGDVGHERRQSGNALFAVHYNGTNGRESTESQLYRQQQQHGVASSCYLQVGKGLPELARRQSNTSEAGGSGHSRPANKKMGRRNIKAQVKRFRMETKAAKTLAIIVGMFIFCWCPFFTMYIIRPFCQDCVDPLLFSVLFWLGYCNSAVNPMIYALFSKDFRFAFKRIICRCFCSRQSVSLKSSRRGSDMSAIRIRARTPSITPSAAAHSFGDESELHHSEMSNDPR
Text: as §1, §2

[4] = molecular target: T2, AgAOctR (Anopheles octopamine receptor isoform A), cloned α-like OctR (Anopheles gambiae, UniProt Q7PRZ8); format: cell-based; conditions: agonist
T2 construct: Gq calcium readout
T2 sequence (Q7PRZ8 1-592): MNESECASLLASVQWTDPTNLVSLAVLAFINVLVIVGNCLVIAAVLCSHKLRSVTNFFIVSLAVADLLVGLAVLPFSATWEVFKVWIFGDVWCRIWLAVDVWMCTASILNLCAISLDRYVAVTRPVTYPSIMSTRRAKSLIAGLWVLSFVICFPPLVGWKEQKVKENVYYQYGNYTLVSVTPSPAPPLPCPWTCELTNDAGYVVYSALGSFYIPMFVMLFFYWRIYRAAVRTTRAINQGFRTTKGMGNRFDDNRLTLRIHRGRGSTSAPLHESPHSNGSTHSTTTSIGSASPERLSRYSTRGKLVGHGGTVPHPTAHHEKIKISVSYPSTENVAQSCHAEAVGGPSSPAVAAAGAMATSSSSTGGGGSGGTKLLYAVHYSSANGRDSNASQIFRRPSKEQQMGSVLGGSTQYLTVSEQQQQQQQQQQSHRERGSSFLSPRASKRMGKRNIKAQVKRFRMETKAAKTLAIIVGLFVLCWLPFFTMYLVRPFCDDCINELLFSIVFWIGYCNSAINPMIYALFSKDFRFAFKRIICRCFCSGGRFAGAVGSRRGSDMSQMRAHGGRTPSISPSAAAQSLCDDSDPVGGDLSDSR
Text: as §1, §2

[5] = molecular target: T3, PaOctR (Periplaneta octopamine receptor), cloned α-like OctR (Periplaneta americana, UniProt Q7YWB7); format: cell-based; conditions: agonist
T3 construct: Gq calcium readout
T3 sequence (Q7YWB7 1-628): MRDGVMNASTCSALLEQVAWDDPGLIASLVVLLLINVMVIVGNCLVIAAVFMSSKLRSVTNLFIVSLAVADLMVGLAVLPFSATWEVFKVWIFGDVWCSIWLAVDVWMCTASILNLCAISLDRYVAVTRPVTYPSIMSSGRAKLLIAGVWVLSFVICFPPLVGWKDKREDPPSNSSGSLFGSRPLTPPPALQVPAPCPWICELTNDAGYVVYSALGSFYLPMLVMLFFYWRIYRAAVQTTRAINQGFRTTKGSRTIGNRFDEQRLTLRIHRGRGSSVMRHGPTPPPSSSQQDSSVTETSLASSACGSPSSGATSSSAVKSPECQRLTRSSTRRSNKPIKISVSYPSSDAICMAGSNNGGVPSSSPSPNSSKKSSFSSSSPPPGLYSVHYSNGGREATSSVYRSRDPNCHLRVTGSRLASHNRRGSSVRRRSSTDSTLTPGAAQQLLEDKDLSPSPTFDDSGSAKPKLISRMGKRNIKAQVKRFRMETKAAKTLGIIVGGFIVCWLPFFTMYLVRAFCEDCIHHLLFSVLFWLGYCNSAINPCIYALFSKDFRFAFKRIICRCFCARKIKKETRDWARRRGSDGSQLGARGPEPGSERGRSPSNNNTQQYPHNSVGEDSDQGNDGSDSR
Text: as §1, §2

Work on `C=C(c1cnc[nH]1)c1cccc(C)c1C` [AZ0027] yielded an EC50 [1] of 12000 ± 3200 pM, an EC50 [2] of 510 ± 280 pM and an EC50 [3] of 8700 ± 2700 pM. The EC50 [4] was 13 ± 4.6 pM and the EC50 [5] was 440 ± 230 pM.

— patent US10766866B2, “Deterrents for arthropods and marine organisms” (priority 2017, dated 2020)
